Source: US11840686B2, “Modulation of prekallikrein (PKK) expression” (Ionis Pharmaceuticals, Inc., priority 2013, dated 2023)
Strand notation (5' to 3'): a small letter for the sugar, then the base; units joined by * are phosphorothioate-linked, units joined directly phosphodiester-linked; [ ] holds rarer units or linkages, { } end groups; capitals alone tell only the bases. e = 2'-O-(2-methoxyethyl) (MOE); [5mC] = 5-methylcytosine; d = 2'-deoxy (DNA)

Legend:
human PKK mRNA = assay: Antisense inhibition of human PKK mRNA in HepaRG cells, 3,000 nM (Example 1); assay type: cell-based; conditions: Table 4; HepaRG cells, electroporation with 3,000 nM antisense oligonucleotide, approx. 24 hours; PKK mRNA by RT-PCR (RTS3454), relative to untreated control cells
How it was run: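 HepaRG cells, 20,000 per well, were electroporated with 3,000 nM 5-10-5 MOE gapmer (phosphorothioate, 5-methylcytosine). After about 24 h, PKK mRNA was measured by qRT-PCR with primer probe set RTS3454 and normalised to RIBOGREEN total RNA. Values are percent inhibition versus untreated cells.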

Factor 12 = Factor 12 activation in mouse plasma, Spectrozyme FXIIa amidolytic assay (Example 17); assay type: in vivo; conditions: for % F12 activation compared to the PBS control: 3 weeks, mouse plasma
Procedure: The effect of antisense inhibition of PKK mRNA on Factor 12 protein activation was evaluated.
Group 1 consisted of 8 mice and was treated with PBS administered subcutaneously twice a week for 3 weeks. No other treatment was administered to Group 1 which served as a control group to measure Factor 12 activation.
Groups 2, 3, 4, 5, and 6 consisted of 8 mice each and were treated with 2.5 mg/kg, 5 mg/kg, 10 mg/kg, 20 mg/kg, or 40 mg/kg (corresponding to 5 mg/kg, 10 mg/kg, 20 mg/kg, 40 mg/kg, or 80 mg/kg per week), respectively of ISIS 482584 administered subcutaneously twice a week for 3 weeks. Groups 2-6 served as the treatment groups for measuring the effect of ISIS 482584 on Factor 12 activation.
At the end of the treatment period, plasma was harvested from the mice for the Spectrozyme® Factor 12a based amidolytic assay for Factor 12 in plasma.
Plasma (5 μL) was added to 85 μL of PBS with 1 μg/ml dextran sulfate (500 kDa) in a 96 well polypropelene microplate and the solution was incubated for 5 minutes at room temperature. Spectrozyme® FXIIa (10 μL of a 2 mM solution) and 0.2 mM KALLISTOP™ solution was added and the absorbance kinetic was measured at 405 nm. Factor 12 activation was measured in the linear phase of absorbance accumulation. The results are presented in Table 78 as a percentage of Factor 12 activation measured in the PBS control sample.

PKK mRNA = PKK mRNA in cynomolgus monkey liver (Example 8); assay type: in vivo; conditions: primates, Example 8
How it was run: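 Cynomolgus monkeys were dosed with human antisense oligonucleotides cross-reactive with the rhesus sequence. Liver RNA taken on day 87 or 88, 48 h after the last dose, was assayed by real-time PCR (primer probe set RTS3455) and normalized to cyclophilin. Values are percent PKK mRNA inhibition versus PBS control.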

[1] = Hematological parameters in cynomolgus monkeys (Example 8); conditions: cynomolgus monkey, 40 mg/kg sc, day 87 or day 88
Procedure: (§1) Prior to the study, the monkeys were kept in quarantine for a 30-day period, during which the animals were observed daily for general health. The monkeys were 2-4 years old and weighed between 2 and 4 kg. Ten groups of four randomly assigned male cynomolgus monkeys each were injected subcutaneously with ISIS oligonucleotide or PBS. PBS solution or ISIS oligonucleotides at a dose of 40 mg/kg were administered initially with a loading regimen consisting of four doses on the first week of the study (days 1, 3, 5, and 7), followed by a maintenance regimen consisting of once weekly administration starting on Day 14 (weeks 2 to 13). Subcutaneous injections were performed in clock-wise rotations at 4 sites on the back; one site per dose. The injection sites were delineated by tattoo, while sedated using ketamine, and were separated by a minimum of 3 cm.
To evaluate any effect of ISIS oligonucleotides in cynomolgus monkeys on hematologic parameters, blood samples of approximately 1.2 mL of blood was collected pre-dose and on day 87 or day 88 from each of the available study animals in tubes containing K2-EDTA. Samples were analyzed for red blood cell (RBC) count, white blood cells (WBC) count, platelet count, hemoglobin content and hematocrit, using an ADVIA2120i hematology analyzer (SIEMENS, USA).

[2] = Urine protein/creatinine ratio in cynomolgus monkeys (Example 8); conditions: cynomolgus monkey, 40 mg/kg sc
Procedure: as §1
Kidney function was also assessed by urinalysis. Fresh urine from all animals was collected using a clean cage pan on wet ice. Food was removed overnight the day before fresh urine collection was done but water was supplied. The total protein and creatinine levels were measured using a Toshiba 120FR NEO automated chemistry analyzer (Toshiba Co., Japan) and the protein to creatinine ratio was calculated.

**Q.** Which “% inhibition” value (human PKK mRNA) does the source give for “531231 (eT*eA*eT*e[5mC]*eA*d[5mC]*dT*dG*dT*dA*d[5mC]*dT*dA*dG*dT*eT*eT*e[5mC]*e[5mC]*eT) [compound 531231]” here?
**A.** 94%

**Q.** What does the source list for “ISIS 482584: 5-10-5 MOE gapmer targeting murine PKK, GGCATATTGGTTTTTGGAAT; SEQ ID NO: 2244 (antisense eG*eG*e[5mC]*eA*eT*dA*dT*dT*dG*dG*dT*dT*dT*dT*dT*eG*eG*eA*eA*eT)”?
**A.** % F12 activation compared to the PBS control (Factor 12; 5 mg/kg/wk sc): 82%; % F12 activation compared to the PBS control (Factor 12; 10 mg/kg/wk sc): 63%; % F12 activation compared to the PBS control (Factor 12; 20 mg/kg/wk sc): 47%; % F12 activation compared to the PBS control (Factor 12; 40 mg/kg/wk sc): 24%; % F12 activation compared to the PBS control (Factor 12; 80 mg/kg/wk sc): 14%; activation of Factor 12 (Factor 12; mouse plasma after 3 weeks s.c. treatment): decreased activation of Factor 12

**Q.** What does the source list for “Tes Ges mCes Aes Aes Gds Tds mCds Tds mCds Tds Tds Gds Gds mCds Aes Aes Aes mCes Ae [ISIS 546254]”?
**A.** inhibiting PKK mRNA and protein expression in primates (PKK mRNA): effective for inhibiting PKK mRNA and protein expression; HCT [1]: 41%; Hemoglobin [1]: 12.4 g/dL; Platelets [1]: 436000 µL⁻¹; RBC [1]: 5.3e+06 µL⁻¹; WBC [1]: 11000 µL⁻¹; Urine protein/creatinine ratio [2]: 0.04
